Data on one compound can be found in publication PMC6631349 (Xenobiotica; the fate of foreign compounds in biological …, 2014).

Holding throughout (details): 50 μM PC components; recombinant human UGT; mean of triplicate
Series [1] deals with T1, UGT1A3 (Homo sapiens, UniProt P35503).
T1 sequence (P35503 29-534): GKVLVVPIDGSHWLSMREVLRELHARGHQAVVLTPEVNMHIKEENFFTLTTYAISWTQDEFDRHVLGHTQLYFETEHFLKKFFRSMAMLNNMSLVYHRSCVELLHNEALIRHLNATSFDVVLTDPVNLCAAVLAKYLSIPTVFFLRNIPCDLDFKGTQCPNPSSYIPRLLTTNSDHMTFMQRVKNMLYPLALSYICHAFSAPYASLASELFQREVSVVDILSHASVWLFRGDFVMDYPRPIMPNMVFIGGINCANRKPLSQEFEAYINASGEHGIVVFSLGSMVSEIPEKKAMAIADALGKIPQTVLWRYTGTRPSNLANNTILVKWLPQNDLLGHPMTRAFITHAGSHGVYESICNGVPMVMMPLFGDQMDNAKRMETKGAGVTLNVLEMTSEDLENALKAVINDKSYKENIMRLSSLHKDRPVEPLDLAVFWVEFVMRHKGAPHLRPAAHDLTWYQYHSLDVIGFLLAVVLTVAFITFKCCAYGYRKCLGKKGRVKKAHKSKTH
Put plainly: UGT1A3 supersomes-catalyzed 4-MU glucuronidation inhibition.

For series [2], the target named is T2, UGT1A6 (Homo sapiens, UniProt P19224).
T2 sequence (P19224 27-532): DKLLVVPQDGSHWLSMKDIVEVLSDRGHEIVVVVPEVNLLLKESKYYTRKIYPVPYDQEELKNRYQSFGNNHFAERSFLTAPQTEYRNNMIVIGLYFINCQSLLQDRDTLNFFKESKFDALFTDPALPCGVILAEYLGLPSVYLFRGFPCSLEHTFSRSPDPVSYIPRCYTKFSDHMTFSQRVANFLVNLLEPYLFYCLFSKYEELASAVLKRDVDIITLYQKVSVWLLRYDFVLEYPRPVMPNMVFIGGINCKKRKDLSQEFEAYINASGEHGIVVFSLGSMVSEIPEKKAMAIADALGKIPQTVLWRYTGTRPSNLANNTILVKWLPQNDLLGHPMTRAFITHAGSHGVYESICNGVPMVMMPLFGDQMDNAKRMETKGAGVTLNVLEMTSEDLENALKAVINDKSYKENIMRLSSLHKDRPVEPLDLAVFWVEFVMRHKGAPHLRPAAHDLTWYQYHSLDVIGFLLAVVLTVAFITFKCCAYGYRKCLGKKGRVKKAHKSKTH

Series [3] deals with T3, UGT1A1 (Homo sapiens, UniProt P22309).
T3 sequence (P22309 26-533): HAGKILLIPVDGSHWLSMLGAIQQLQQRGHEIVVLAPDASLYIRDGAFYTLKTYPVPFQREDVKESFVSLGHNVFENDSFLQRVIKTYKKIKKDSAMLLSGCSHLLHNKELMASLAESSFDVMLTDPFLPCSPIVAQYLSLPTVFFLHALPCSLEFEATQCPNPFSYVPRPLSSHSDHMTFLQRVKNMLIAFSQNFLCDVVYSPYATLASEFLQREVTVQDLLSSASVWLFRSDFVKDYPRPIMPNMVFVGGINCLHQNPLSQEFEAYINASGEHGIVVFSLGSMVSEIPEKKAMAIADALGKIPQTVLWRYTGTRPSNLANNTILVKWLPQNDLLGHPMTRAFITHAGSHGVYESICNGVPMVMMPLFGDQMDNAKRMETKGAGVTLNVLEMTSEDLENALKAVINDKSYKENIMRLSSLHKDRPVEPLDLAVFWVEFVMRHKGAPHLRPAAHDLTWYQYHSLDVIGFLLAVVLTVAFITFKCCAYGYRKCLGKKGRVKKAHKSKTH
Put plainly: UGT1A1 supersomes-catalyzed 4-MU glucuronidation inhibition.

The target in series [4] is T4, UGT2B4 (Homo sapiens, UniProt P06133).
T4 sequence (P06133 24-528): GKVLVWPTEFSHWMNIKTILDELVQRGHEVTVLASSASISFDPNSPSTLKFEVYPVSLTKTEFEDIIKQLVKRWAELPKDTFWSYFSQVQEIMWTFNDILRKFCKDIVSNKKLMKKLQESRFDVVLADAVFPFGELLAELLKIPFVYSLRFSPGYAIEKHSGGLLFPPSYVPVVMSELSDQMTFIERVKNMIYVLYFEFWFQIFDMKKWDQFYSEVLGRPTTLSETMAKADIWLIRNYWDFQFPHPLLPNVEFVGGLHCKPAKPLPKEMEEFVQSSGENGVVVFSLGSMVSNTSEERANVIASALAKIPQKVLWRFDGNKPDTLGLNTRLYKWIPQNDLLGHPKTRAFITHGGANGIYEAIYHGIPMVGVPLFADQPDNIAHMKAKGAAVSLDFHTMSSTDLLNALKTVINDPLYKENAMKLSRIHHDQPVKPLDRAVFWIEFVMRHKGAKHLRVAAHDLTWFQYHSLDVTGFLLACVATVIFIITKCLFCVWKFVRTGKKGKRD
The series can be described thus: UGT2B4 supersomes-catalyzed 4-MU glucuronidation inhibition.

The target of series [5] is T5, UGT2B7 (Homo sapiens, UniProt P16662).
T5 sequence (P16662 24-529): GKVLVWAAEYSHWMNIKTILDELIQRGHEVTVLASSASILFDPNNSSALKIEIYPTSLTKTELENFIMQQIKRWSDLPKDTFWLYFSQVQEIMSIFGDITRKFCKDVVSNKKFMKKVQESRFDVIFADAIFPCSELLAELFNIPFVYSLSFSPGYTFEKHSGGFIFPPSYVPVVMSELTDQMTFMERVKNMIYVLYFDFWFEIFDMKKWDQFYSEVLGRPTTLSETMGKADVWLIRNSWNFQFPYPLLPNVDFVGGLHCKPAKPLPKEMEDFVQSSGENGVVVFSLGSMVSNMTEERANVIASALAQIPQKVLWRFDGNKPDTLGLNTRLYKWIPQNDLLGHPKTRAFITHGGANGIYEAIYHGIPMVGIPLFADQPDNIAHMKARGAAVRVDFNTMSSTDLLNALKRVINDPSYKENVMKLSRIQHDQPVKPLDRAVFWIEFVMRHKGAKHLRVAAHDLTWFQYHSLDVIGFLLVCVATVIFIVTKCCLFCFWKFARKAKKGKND
The series can be described thus: UGT2B7 supersomes-catalyzed 4-MU glucuronidation inhibition.

The structures appear in SMILES notation.

As for `CC/C=C\C/C=C\C/C=C\C/C=C\C/C=C\C/C=C\CCC(=O)O[C@H](COC(=O)CCCCCCCCCCCCCCCCC)COP(=O)([O-])OCC[N+](C)(C)C` [PC 18:0, 22:6, 1-stearoyl-2-docosahexaenoyl-sn-glycero-3-phosphocholine], the “residual activity 1A3” value in series [1] turned out to be 90.0%. In addition, the “residual activity 1A6” value in series [2] is listed as 88.8%. Besides, in series [3], the “residual activity 1A1” value is reported as 186.6%. The “residual activity 2B4” value in series [4] stood at 183.2%. Also, the “residual activity 2B7” value in series [5] was determined as 73.6%.
